These results are taken from patent publication US20210300936A1, “PYRAZOLOTRIAZOLOPYRIMIDINE DERIVATIVES AS A2A RECEPTOR ANTAGONIST” (BEIGENE, LTD., priority 2018, published 2021).

In general, IC50 refers to the point on the concentration scale where inhibition reaches its midpoint. Lower therefore signals inhibition by little substance.

Sequence of human A2A receptor (A2AR) (P29274 whole entry): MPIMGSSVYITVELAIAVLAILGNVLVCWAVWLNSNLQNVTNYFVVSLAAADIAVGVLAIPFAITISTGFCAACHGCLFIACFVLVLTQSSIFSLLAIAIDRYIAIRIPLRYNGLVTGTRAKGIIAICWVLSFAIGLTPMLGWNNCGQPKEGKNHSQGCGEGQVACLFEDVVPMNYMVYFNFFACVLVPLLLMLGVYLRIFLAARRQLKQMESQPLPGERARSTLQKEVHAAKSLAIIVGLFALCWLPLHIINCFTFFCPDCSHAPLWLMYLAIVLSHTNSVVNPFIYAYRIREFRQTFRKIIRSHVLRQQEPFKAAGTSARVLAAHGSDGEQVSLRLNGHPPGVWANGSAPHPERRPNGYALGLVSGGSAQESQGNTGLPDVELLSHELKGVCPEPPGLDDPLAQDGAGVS

The target in the assay is human A2A receptor (A2AR) (Homo sapiens, UniProt P29274). In words: Luciferase reporter assay (HEK293-A2AR-luc2p/CRE/Hygro cells, 3 nM CGS21680). Format: cell-based. Conditions: 3 nM CGS21680, 5 h incubation. The method, then:
HEK293 cells were maintained in Dulbecco's modified Eagle's medium (DMEM, Gibco) supplemented with 10% fetal bovine serum (FBS, Thermo Scientific), 100 units/mL penicillin (Gibco), and 0.1 mg/mL streptomycin (Gibco) in a humidified 37° C. environment with 5% C02. Plasmid encoding wild-type human A2A receptor (A2AR) (in pcDNA3.1) was synthesized by Genscript (Nanjing, China). Transfection of the plasmids was performed in 6-well plates with 4×10^5 cells using Lipofectamin 2000 (ThermoFisher Scientific) according to the instruction of the manufacturer. Cell clones that stably express A2AR were established and maintained in the same complete medium as the HEK293 cells in addition of G-418 (Gibico). Expression level of A2AR in each single cell clone was determined using immunoblotting and FACS method. HEK293-A2AR stable cells were then transfected with pGL4.29[luc2P/CRE/Hygro] (Promega) luciferase reporter plasmid for establishing the HEK293-A2AR-luc2p/CRE/Hygro stable cell line.
HEK293-A2AR-luc2p/CRE/Hygro cells were seeded at a density of 5,000 cells/well in DMEM with 1% FBS and 1 U/mL adenosine deaminase (ADA) (Sigma). After 18 h, the cells were treated with 3 nM CGS21680 plus a series dilution of A2AR antagonist, the compounds disclosed herein at the concentration of 0.1˜10000 nM, prepared in DMEM with 1% FBS. After 5 h incubation, the luciferase activity in cells were measured using the Bright-Glo Luciferase Assay System (Promega) according to manufacturer's instructions. The luminescence signal was measured using a PHERAstar FS plate reader (BMG Labtech). […] Maximal luminescence intensity was determined in the presence of 3 nM CGS21680 and was set as 100%. The IC50 value was calculated from a dose dependent inhibition curve across the range of compound concentrations.
On the technique in general: A reporter such as luciferase makes a cellular process visible.
`COCCOc1ccc(N2CCN(C(=O)C(C)n3ncc4c3nc(N)n3nc(-c5ccco5)nc43)CC2)cc1` (single isomer, unassigned) [Compound A1a, 2-(5-amino-2-(furan-2-yl)-7H-pyrazolo[4,3-e][1,2,4]triazolo[1,5-c]pyrimidin-7-yl)-1-(4-(4-(2-methoxyethoxy)phenyl)piperazin-1-yl)propan-1-one] registered an IC50 of 223 nM.

Compound `COCCOc1ccc(N2CCN(C(=O)C(C)n3ncc4c3nc(N)n3nc(-c5ccco5)nc43)CC2)cc1` (single isomer, unassigned) [Compound A1b, 2-(5-amino-2-(furan-2-yl)-7H-pyrazolo[4,3-e][1,2,4]triazolo[1,5-c]pyrimidin-7-yl)-1-(4-(4-(2-methoxyethoxy)phenyl)piperazin-1-yl)propan-1-one] gave an IC50 of 40 nM.

Compound `CCCC(C(=O)N1CCN(c2ccc(OCCOCCOC)cc2)CC1)n1ncc2c1nc(N)n1nc(-c3ccco3)nc21` (single isomer, unassigned) [Compound A6b, 2-(5-amino-2-(furan-2-yl)-7H-pyrazolo[4,3-e][1,2,4]triazolo[1,5-c]pyrimidin-7-yl)-1-(4-(4-(2-(2-methoxyethoxy)ethoxy)phenyl)piperazin-1-yl)pentan-1-one] displayed an IC50 of 135 nM.

Compound `CCCCC(C(=O)N1CCN(c2ccc(OCCOCCOC)cc2)CC1)n1ncc2c1nc(N)n1nc(-c3ccco3)nc21` (single isomer, unassigned) [Compound A11a] showed an IC50 of 4.6 nM.

In turn, `CCCCC(C(=O)N1CCN(c2ccc(OCCOCCOC)cc2)CC1)n1ncc2c1nc(N)n1nc(-c3ccco3)nc21` (single isomer, unassigned) [Compound A11b] showed an IC50 of 121 nM.

The compound `COCCOCCOc1ccc(N2CCN(C(=O)C(CC(C)C)n3ncc4c3nc(N)n3nc(-c5ccco5)nc43)CC2)cc1` (single isomer, unassigned) [Compound A17a] gave an IC50 of 0.9 nM.

On to `COCCOCCOc1ccc(N2CCN(C(=O)C(CC(C)C)n3ncc4c3nc(N)n3nc(-c5ccco5)nc43)CC2)cc1` (single isomer, unassigned) [Compound A17b], for which the IC50 came to 160 nM.

With `CC(C)CC(C(=O)N1CCN(c2ccc(F)cc2F)CC1)n1ncc2c1nc(N)n1nc(-c3ccco3)nc21` (single isomer, unassigned) [Compound A22a], the IC50 came to 246 nM.

The compound `COCCOc1ccc(N2CCN(C(=O)C(c3ccccc3OC)n3ncc4c3nc(N)n3nc(-c5ccco5)nc43)CC2)cc1` (single isomer, unassigned) [Compound A31a] gave an IC50 of 8.1 nM.

`COCCOc1ccc(N2CCN(C(=O)C(c3ccccc3OC)n3ncc4c3nc(N)n3nc(-c5ccco5)nc43)CC2)cc1` (single isomer, unassigned) [Compound A31b] had an IC50 of 0.1 nM.

Compound `CCCC(C(=O)N1CCN(c2ccc(OCCN(C)C)cc2)CC1)n1ncc2c1nc(N)n1nc(-c3ccco3)nc21` (single isomer, unassigned) [Compound A39a] came in with an IC50 of 127 nM.

Take `COCCOc1ccc(N2CCN(C(=O)C(c3ccccc3F)n3ncc4c3nc(N)n3nc(-c5ccco5)nc43)CC2)cc1` (single isomer, unassigned) [Compound A43a]: half-maximal inhibition (IC50) was put at 16.1 nM.

Compound `COCCOc1ccc(N2CCN(C(=O)C(c3ccccc3)n3ncc4c3nc(N)n3nc(-c5ccco5)nc43)CC2)c(F)c1` (single isomer, unassigned) [Compound A44a] gave an IC50 of 39.2 nM.

As to `COCCOc1ccc(N2CCN(C(=O)C(c3ccccc3)n3ncc4c3nc(N)n3nc(-c5ccco5)nc43)CC2)c(F)c1` (single isomer, unassigned) [Compound A44b], the IC50 was found to be 0.5 nM.

As for `COCCOc1ccc(N2CCN(C(=O)C(c3ccccc3)n3ncc4c3nc(N)n3nc(-c5ccco5)nc43)CC2C)cc1` (single isomer, unassigned) [Compound A46a], the IC50 is 67.4 nM.

Regarding `COCCOc1ccc(N2CCN(C(=O)C(c3ccccc3)n3ncc4c3nc(N)n3nc(-c5ccco5)nc43)CC2C)cc1` (single isomer, unassigned) [Compound A46b], half-maximal inhibition (IC50) required 0.9 nM.
